In patent publication US20180237774A1, “METHODS OF SCREENING FOR RIBOSWITCHES AND ATTENUATORS” (priority 2015, published 2018):
In brackets after ≈: the same amount, converted by molar mass. Positions of bridges follow the written chain, without caps; N, C: chain ends. Non-standard residues stand in square brackets, D forms with d. Residues, ends and D or L forms follow the SMILES beside them. *: point of attachment. Ileψ(thiazoline)Cys = CC[C@H](C)[C@H](N)C1=N[C@H](C(=O)*)CS1; dOrn = NCCC[C@@H](N)C(=O)O

Legend:
L. monocytogenes Wt = experiment: Minimal inhibitory concentration (MIC) determination in broth; format: cell-based; details: Listeria monocytogenes, 48 h, BHI, two days at 37° C.
Description: (§1) The MIC was determined in broth culturing conditions in the presence of serially diluted antibiotic concentrations. Briefly, the bacterial strains were grown O.N. at 37° C. in BHI agarose plates and 1-3 single colonies were collected into 1 ml of BHI broth. The OD600 was adjusted to 0.01 and then diluted 1:10 into a 96-well plate containing a final volume of 200 μl BHI supplemented with two-fold serial dilutions of lincomycin, erythromycin and chloramphenicol.

B. subtilis = experiment: Sublethal antibiotic concentration determination (growth-rate monitoring); format: cell-based, Bacillus subtilis str. 168; details: for Sublethal concentration (highest antibiotics concentration that did not cause growth-rate inhibition): Table 2; for Sublethal concentrations of antibiotics used in this study: Table 6
Description: (§2) A sublethal concentration for the antibiotics lincomycin, erythromycin, chloramphenicol, kanamycin, ofloxacin, ampicilin and bacitracin (Sigma) was determined for each of the organisms used in this study as follows. Bacterial cultures were propagated in LB or BHI O.N. in triplicates and diluted 1:200 into fresh media. Cultures were grown to early exponential phase (OD600=0.1-0.2) and then supplemented with serially diluted antibiotics stocks. The growth rate was dynamically monitored in intervals of 10-15 min using a 96 well plate format OD reader (Infinite M200 Tecan) for a period of at least 4 hours. […] To identify antibiotic-responsive regulators, bacteria were grown in LB or BHI in triplicates as described above and, upon reaching early exponential phase, 5 ml cultures were independently exposed for 15 minutes to the sublethal concentration of each antibiotic as determined above. Bacteria were then collected by centrifugation, flash frozen and stored in −80° C. until RNA extraction.

[1] = system: lmo1652 regulatory element (rli59); experiment: Antibiotic-dependent transcriptional readthrough by term-seq and RNA-seq; format: cell-based, L. monocytogenes
Description: as §2
(§3) Term-seq average coverage across triplicates was calculated for the premature termination site and the full length gene termination site with a span of 10 nt surrounding each terminator, and the fraction of full length (gene) terminations out of all termination events was used to as a measure of the transcriptional readthrough (FIG. 3A). In cases where the regulator controlled the transcription of a multi-gene operon, which contained internal TSSs in addition to the primary one, RNA-seq was used to determine readthrough in the first gene (FIGS. 4C and 4F). RNA-seq coverage was used to measure the median read coverage over either the regulatory element or the gene, and the ratio between the two (gene-coverage divided by regulator-coverage) was used as an estimate for the short/long transcript ratio generated by regulator activity (FIG. 3A).

E. faecalis = experiment: Sublethal antibiotic concentration determination (growth-rate monitoring); format: cell-based, Enterococcus faecalis ATCC 29212; details: for Sublethal concentration (highest antibiotics concentration that did not cause growth-rate inhibition): Table 2; for Sublethal concentrations of antibiotics used in this study: Table 6
Description: as §2

L. monocytogenes = experiment: as above; format: cell-based, Listeria monocytogenes EGDe; details: for Sublethal concentration (highest antibiotics concentration that did not cause growth-rate inhibition): Table 2; for Sublethal concentrations of antibiotics used in this study: Table 6
Description: as §2

[2] = system: L. monocytogenes ΔAnti-terminator; experiment: Minimal inhibitory concentration (MIC) determination in broth; format: cell-based; details: Listeria monocytogenes, 48 h
Text: (§4) For mutant generation with pMAD-based plasmids^59, ˜600 nt regions of complementarity both upstream and downstream of a targeted region were either ordered as gBlocks (IDT) and amplified with gBlock-Up and Down oligonucleotides (Table 1) complimentary to uniform flanks on each gBlock corresponding to the 40 nts on either side of the pMAD multi-cloning site, or PCR amplified with Phusion High fidelity polymerase and reagents (Finnzymes, F-553) using genomic DNA as a template and then joined by a second splice overlap extension PCR reaction using the first two PCR products as template to generate a Upstream-Downstream (UD) PCR product (Table 1, lmo0919 deletion). PCR products were subsequently purified with QIAquick PCR purification columns (Qiagen, 28104), digested with the SalI and XmaI restriction enzymes (NEB), purified again as before, and ligated into SalI/XmaI digested pMAD plasmid for 1 hr at 25° C. with T4 DNA ligase (NEB, M0202S). 2 μl of each ligation were transformed into chemically competent E. coli Top10 (Invitrogen, C404003) cells according to the manufacturer's instructions. Transformants were screened by PCR and Sanger sequencing for the presence of the appropriate insert. Electrocompetent L. monocytogenes strains were transformed with the respective plasmid and mutagenesis carried out as described previously^59. Briefly, after transformation and plating onto selective BHI, 5 ug/ml erythromycin (Em) 80 ug/ml 5-bromo-4-chloro-3-indolyl-β-D-galactopyranoside (X-gal) plates, bacteria were grown at 30° C. for two days. A single blue colony was picked and transferred to liquid BHI broth and grown for an additional 6 hrs at 30° C. The colony was then diluted 1:1000 into 10 ml of BHI-Em and grown O.N. at 42° C., which prevents pMAD replication in the cytosol owing to a temperature sensitive ori. Serial dilutions were plated onto BHI-X-gal-Em plates and grown for two days at 42° C., and the process was reiterated several times until white colonies, in which the plasmid integrated into the genome, were recovered. Colonies were screened by colony PCR, and mutants were confirmed by Sanger sequencing.
as §1

[3] = system: L. monocytogenes uORF ATG > ACG; experiment: as above; format: cell-based; details: Listeria monocytogenes, 48 h
Text: as §4, §1

[4] = system: L. monocytogenes ΔAnti-anti-terminator; experiment: as above; format: cell-based; details: Listeria monocytogenes, 48 h
Text: as §4, §1

[5] = system: msrC (EF1413) termination-based regulator; experiment: Antibiotic-dependent transcriptional readthrough by term-seq and RNA-seq; format: cell-based, E. faecalis; details: upon exposure to the antibiotic
Description: as §2
(§5) Term-seq average coverage across triplicates was calculated for the premature termination site and the full length gene termination site with a span of 10 nt surrounding each terminator, and the fraction of full length (gene) terminations out of all termination events was used to as a measure of the transcriptional readthrough (FIG. 3A). […]

[6] = system: L. monocytogenes Δlmo0919; experiment: Minimal inhibitory concentration (MIC) determination in broth; format: cell-based, Listeria monocytogenes; details: for MIC: Listeria monocytogenes, 48 h
Text: as §4, with “Serial dilutions were plated onto BHI-X-gal-Em plates and grown for two days at 42° C., and the process was reiterated several times until white colonies, in which the plasmid integrated into the genome, were recovered. Colonies were screened by colony PCR, and mutants were confirmed by Sanger sequencing.” left out
The MIC was determined in broth culturing conditions in the presence of serially diluted antibiotic concentrations. […]

[7] = system: EF2720 regulatory element; experiment: Antibiotic-dependent transcriptional readthrough by term-seq and RNA-seq; format: cell-based, E. faecalis
Description: as §2, §5

[8] = system: 3aa uORF of the lmo0919 ribo-regulator homolog; experiment: Ribosome profiling (Ribo-seq) of ribosome occupancy over the lmo0919 ribo-regulator uORF; format: cell-based; details: L. innocua; brief exposure to lincomycin versus control
Description: (§6) FIG. 14 is a graph illustrating lincomycin-dependent ribosome stalling in the lmo0919 ribo-regulator.
(§7) To characterize the effects of lincomycin on the interaction between the ribo-regulator and the ribosome levels of ribosome occupancy over the ribo-regulator in control and lincomycin-treated bacteria were measured using ribosome profiling (Ribo-seq) (23, 42). Strikingly, an ˜5 fold increase in ribosome occupancy over the 3aa uORFs in both L. monocytogenes and L. innocua was measured following brief exposure to lincomycin (FIG. 14) (23).

[9] = system: 3aa uORF of the lmo0919 ribo-regulator; experiment: as above; format: cell-based; details: L. monocytogenes; brief exposure to lincomycin versus control
Description: as §6, §7

lmo0919 regulator = experiment: Lincomycin-dependent induction of lmo0919 in ErmC-expressing strain; format: cell-based, L. monocytogenes expressing ErmC; details: ErmC-expressing bacteria, ribosomes resistant to lincomycin
Description: FIG. 11 illustrates that the lmo0919 regulator senses ribosome inhibition. L. monocytogenes carrying the ErmC antibiotic resistance gene was assayed for lincomycin dependent induction. In the L. monocytogenes ErmC-expressing strain, in which ribosome are made immune to lincomycin via methylation of A2058 in the 23S rRNA, the lmo0919 regulator is unresponsive to the presence of the antibiotic (red).
The structural alterations in the lmo0919 ribo-regulator could either be mediated by direct binding of the antibiotic to the ribo-regulator (i.e., a riboswitch), or by attenuation, where the lincomycin-inhibited ribosomes stall on a uORF in the ribo-regulator, thus shifting the ribo-regulator structure from a “closed” to an “open” state. To differentiate between direct binding and ribosome-mediated regulation, lincomycin-dependent induction of lmo0919 in L. monocytogenes expressing the ErmC 23S rRNA methyltransferase was measured. In these bacteria the ribosomes are di-methylated at position A2058 of the 23S rRNA, rendering the ribosomes resistant to lincomycin.

[10] = system: lmo0919 5′UTR regulator (rli53); experiment: Antibiotic-dependent transcriptional readthrough by term-seq and RNA-seq; format: cell-based, L. monocytogenes; details: 15 minutes exposure to sublethal concentration
Description: as §2, §3

Row | Structure (SMILES) | MIC (L. monocytogenes Wt) [µg/mL] | Sublethal concentration (highest antibiotics concentration that did not cause growth-rate inhibition) (B. subtilis) [µg/mL] | Sublethal concentrations of antibiotics used in this study (B. subtilis) [µg/mL] | Response of the lmo1652 regulatory element [1] | Sublethal concentration (highest antibiotics concentration that did not cause growth-rate inhibition) (E. faecalis) [µg/mL] | Sublethal concentrations of antibiotics used in this study (E. faecalis) [µg/mL] | Sublethal concentration (highest antibiotics concentration that did not cause growth-rate inhibition) (L. monocytogenes) [µg/mL] | Sublethal concentrations of antibiotics used in this study (L. monocytogenes) [µg/mL] | MIC [2] [µg/mL] | MIC [3] [µg/mL] | MIC [4] [µg/mL] | Response of msrC promoter and termination-based regulator [5] | MIC [6] [µg/mL] | Response of the EF2720 regulatory element [7] | Increase in ribosome occupancy over the 3aa uORF [8] [fold] | Increase in ribosome occupancy over the 3aa uORF [9] [fold] | Responsiveness of the lmo0919 regulator (lmo0919 regulator) | Activation of the lmo0919 5′UTR regulator (readthrough) [10] | Increase in sensitivity upon deletion of lmo0919 ([6]; Δlmo0919 versus wild type L. monocytogenes) [fold]
1 | O=C(N[C@H](CO)[C@H](O)c1ccc([N+](=O)[O-])cc1)C(Cl)Cl [Chloramphenicol] | 2 (≈ 6.19 µM) | 0.2 | 0.2 | responds | 0.4 | 0.4 | 0.4 | 0.4 |  |  |  |  |  |  |  |  |  |  | 
2 | CC1(C)S[C@@H]2[C@H](NC(=O)[C@H](N)c3ccccc3)C(=O)N2[C@H]1C(=O)O [Ampicillin] |  | 0.0625 | 0.0625 |  | 2 | 2 | 1 | 1 |  |  |  |  |  |  |  |  |  |  | 
3 | CC[C@H](C)[C@H](N)C1=N[C@H](C(=O)N[C@@H](CC(C)C)C(=O)N[C@H](CCC(=O)O)C(=O)N[C@H](C(=O)N[C@H]2CCCCNC(=O)[C@H](CC(N)=O)NC(=O)[C@@H](CC(=O)O)NC(=O)[C@H](Cc3cnc[nH]3)NC(=O)[C@@H](Cc3ccccc3)NC(=O)[C@H]([C@@H](C)CC)NC(=O)[C@@H](CCCN)NC2=O)[C@@H](C)CC)CS1 [Bacitracin] ({Ileψ(thiazoline)Cys}-L[dE]IK[dOrn]I[dF]H[dD]N; lactam 4-C) |  | 0.125 | 0.125 |  | 1 | 1 | 8 | 8 |  |  |  |  |  |  |  |  |  |  | 
4 | CC[C@H]1OC(=O)[C@H](C)[C@@H](O[C@H]2C[C@@](C)(OC)[C@@H](O)[C@H](C)O2)[C@H](C)[C@@H](O[C@@H]2O[C@H](C)C[C@H](N(C)C)[C@H]2O)[C@](C)(O)C[C@@H](C)C(=O)[C@H](C)[C@@H](O)[C@]1(C)O [Erythromycin] | 0.0312 (≈ 0.0426 µM) | 0.01562 | 0.01562 | responds | 0.5 | 0.5 | 0.03125 | 0.03125 | 0.0625 (≈ 0.0852 µM) | 0.0625 (≈ 0.0852 µM) | 0.0312 (≈ 0.0426 µM) | increase both the transcription initiation rate and readthrough into the gene | 0.0625 (≈ 0.0852 µM) |  |  |  |  |  | 
5 | NC[C@H]1O[C@H](O[C@H]2[C@H](O)[C@@H](O[C@H]3O[C@H](CO)[C@@H](O)[C@H](N)[C@H]3O)[C@H](N)C[C@@H]2N)[C@H](O)[C@@H](O)[C@@H]1O [Kanamycin] |  | 0.5 | 0.5 |  | 16 | 16 | 0.5 | 0.5 |  |  |  |  |  |  |  |  |  |  | 
6 | CCC[C@@H]1C[C@@H](C(=O)N[C@@H]([C@H]2O[C@H](SC)[C@H](O)[C@@H](O)[C@H]2O)[C@@H](C)O)N(C)C1 [Lincomycin] | 1 (≈ 2.46 µM) | 0.5 | 0.5 | responds | 2 | 2 | 0.25 | 0.25 | 0.25 (≈ 0.615 µM) | 0.25 (≈ 0.615 µM) | 8 (≈ 19.7 µM) |  | 0.25 (≈ 0.615 µM) | respond | ~5 | ~5 | no longer responsive | specific activation | 4
